The values below come from ChEMBL document CHEMBL5465560, “Selectivity Literature for EUbOPEN Chemogenomic Library” (2024).

pIC50: −log10 of the molar value.

Experiment [1] concerns the target T1, Serine/threonine-protein kinase MAK (Homo sapiens) (UniProt P20794).
T1 sequence (whole entry): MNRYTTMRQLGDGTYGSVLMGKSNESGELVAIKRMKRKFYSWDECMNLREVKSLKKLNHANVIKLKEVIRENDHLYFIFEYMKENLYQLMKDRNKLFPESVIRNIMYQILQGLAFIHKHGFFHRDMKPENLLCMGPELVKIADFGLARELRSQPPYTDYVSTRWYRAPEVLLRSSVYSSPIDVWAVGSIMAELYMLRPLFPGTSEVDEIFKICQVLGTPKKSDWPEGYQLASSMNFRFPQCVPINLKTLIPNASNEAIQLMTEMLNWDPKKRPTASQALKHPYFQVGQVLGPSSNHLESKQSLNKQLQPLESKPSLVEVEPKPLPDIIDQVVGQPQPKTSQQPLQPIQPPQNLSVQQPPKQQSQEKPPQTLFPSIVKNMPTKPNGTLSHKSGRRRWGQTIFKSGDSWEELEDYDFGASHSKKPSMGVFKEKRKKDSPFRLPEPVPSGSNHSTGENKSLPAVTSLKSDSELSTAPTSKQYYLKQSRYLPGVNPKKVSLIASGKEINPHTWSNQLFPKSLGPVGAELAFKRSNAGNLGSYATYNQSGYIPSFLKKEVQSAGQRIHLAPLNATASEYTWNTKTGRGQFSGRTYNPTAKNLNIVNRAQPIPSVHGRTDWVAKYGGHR
Description: Selectivity interaction (Ambit KINOMEscan and KiNATiv profiling in Jurkat cells) EUB0000090b MAK. The experiment is classed as cell-based. The conditions noted are these: at 1 µM.

In experiment [2] the target is Cyclin-dependent kinase 8 (Homo sapiens, UniProt P49336). The experiment is described as follows: Selectivity interaction (ActivX KiNativ screen (ex vivo kinase selectivity in human PBMCs)) EUB0001619a CDK8. The class given is cell-based. The conditions noted are these: PBMC, at 1 µM.
In experiment [3] the target is T2, MAP kinase-activated protein kinase 5 (Homo sapiens) (UniProt Q8IW41).
T2 sequence (whole entry): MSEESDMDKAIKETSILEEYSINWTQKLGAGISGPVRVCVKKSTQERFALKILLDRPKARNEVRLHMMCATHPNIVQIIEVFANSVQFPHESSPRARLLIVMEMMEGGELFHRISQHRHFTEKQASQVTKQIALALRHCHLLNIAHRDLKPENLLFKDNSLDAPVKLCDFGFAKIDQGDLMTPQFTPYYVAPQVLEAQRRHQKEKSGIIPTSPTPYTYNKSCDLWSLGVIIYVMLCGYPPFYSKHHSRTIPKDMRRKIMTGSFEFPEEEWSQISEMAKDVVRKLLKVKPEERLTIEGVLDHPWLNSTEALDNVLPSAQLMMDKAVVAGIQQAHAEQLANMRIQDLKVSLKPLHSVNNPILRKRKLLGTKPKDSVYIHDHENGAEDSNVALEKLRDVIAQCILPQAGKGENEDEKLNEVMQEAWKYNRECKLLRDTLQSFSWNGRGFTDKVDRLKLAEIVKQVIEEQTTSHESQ
The experiment is described as follows: Selectivity interaction (Kinase panel (literature)) EUB0001199aCl MAPKAPK5. The conditions noted are these: at 1 µM.

In the next experiment the target is Ephrin type-A receptor 4 (Homo sapiens, UniProt P54764). Description: Selectivity interaction (Kinase panel (33PanQinase(R) Activity Assay)) EUB0000877a EPHA4.
The target of experiment [4] is Cyclin-dependent kinase 9 (Homo sapiens, UniProt P50750). The conditions noted are these: at 10 µM.
The target of experiment [5] is Atypical kinase COQ8A, mitochondrial (Homo sapiens, UniProt Q8NI60). Description: Selectivity interaction (KinomeScan (DiscoverX)) EUB0001049a ADCK3. The conditions noted are these: at 1 µM.
Experiment [6] concerns the target T3, Serine/threonine-protein kinase RIO3 (Homo sapiens) (UniProt O14730).
T3 sequence (whole entry): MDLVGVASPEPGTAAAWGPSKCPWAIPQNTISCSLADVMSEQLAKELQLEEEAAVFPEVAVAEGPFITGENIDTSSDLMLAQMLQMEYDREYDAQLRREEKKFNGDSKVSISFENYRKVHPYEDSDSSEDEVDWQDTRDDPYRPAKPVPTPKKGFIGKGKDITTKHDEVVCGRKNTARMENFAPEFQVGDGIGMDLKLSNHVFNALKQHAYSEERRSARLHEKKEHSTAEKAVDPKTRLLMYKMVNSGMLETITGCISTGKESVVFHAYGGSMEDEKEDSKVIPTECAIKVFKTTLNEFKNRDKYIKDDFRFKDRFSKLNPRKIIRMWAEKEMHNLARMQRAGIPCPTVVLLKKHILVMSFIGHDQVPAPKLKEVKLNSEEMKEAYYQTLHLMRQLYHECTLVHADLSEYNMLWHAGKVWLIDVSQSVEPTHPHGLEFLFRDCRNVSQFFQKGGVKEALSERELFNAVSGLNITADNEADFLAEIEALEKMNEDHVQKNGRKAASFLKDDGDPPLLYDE
Description: Selectivity interaction (KinomeScan (DiscoverX)) EUB0000618a RIOK3. To be noted: at 10 µM.

Experiment [7] concerns the target Wee1-like protein kinase 2 (Homo sapiens) (UniProt P0C1S8). The experiment is described as follows: Selectivity interaction (KinomeScan (DiscoverX)) EUB0000595a WEE2. The conditions noted are these: at 10 µM.

Sequence of Atypical kinase COQ8A, mitochondrial (Q8NI60 163-647 limits assumed): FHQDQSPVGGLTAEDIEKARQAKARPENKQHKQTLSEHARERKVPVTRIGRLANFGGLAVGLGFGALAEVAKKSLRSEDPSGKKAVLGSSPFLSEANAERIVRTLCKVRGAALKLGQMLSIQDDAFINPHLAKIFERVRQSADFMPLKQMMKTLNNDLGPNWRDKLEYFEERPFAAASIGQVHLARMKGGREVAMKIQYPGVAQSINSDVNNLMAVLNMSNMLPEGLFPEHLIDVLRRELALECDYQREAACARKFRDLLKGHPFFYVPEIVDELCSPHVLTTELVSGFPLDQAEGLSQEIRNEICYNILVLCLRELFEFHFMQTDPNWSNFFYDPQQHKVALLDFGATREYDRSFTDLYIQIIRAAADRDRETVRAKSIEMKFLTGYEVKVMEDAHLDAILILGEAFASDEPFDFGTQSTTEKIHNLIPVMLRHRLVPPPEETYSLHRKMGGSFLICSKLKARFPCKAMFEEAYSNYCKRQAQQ
Sequence of Wee1-like protein kinase 2 (Homo sapiens) (P0C1S8 whole entry, looked up): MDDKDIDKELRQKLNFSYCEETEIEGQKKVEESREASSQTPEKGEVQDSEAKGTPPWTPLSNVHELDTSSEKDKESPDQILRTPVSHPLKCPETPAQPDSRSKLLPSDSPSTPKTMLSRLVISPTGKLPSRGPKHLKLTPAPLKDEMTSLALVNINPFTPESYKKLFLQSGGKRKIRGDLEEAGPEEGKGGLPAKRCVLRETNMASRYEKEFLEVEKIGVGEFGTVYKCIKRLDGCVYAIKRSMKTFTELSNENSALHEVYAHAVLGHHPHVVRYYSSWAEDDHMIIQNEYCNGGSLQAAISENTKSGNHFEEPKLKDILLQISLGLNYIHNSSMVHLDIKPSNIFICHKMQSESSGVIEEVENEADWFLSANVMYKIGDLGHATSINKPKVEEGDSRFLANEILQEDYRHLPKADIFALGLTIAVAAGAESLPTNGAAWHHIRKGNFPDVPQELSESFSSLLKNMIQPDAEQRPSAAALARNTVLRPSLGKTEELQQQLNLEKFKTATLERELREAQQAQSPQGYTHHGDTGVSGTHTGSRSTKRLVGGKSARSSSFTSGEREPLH
Sequence of Cyclin-dependent kinase 9 (P50750 whole entry): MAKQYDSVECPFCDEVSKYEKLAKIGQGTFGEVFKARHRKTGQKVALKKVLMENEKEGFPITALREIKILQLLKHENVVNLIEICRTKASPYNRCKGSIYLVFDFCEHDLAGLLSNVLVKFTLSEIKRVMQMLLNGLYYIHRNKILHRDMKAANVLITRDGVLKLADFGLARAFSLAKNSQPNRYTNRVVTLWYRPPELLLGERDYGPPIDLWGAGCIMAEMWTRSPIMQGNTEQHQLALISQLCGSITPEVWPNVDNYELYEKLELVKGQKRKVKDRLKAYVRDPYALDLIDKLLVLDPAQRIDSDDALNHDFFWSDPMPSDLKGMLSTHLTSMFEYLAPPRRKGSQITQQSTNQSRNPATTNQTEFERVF
Sequence of Cyclin-dependent kinase 8 (P49336 whole entry): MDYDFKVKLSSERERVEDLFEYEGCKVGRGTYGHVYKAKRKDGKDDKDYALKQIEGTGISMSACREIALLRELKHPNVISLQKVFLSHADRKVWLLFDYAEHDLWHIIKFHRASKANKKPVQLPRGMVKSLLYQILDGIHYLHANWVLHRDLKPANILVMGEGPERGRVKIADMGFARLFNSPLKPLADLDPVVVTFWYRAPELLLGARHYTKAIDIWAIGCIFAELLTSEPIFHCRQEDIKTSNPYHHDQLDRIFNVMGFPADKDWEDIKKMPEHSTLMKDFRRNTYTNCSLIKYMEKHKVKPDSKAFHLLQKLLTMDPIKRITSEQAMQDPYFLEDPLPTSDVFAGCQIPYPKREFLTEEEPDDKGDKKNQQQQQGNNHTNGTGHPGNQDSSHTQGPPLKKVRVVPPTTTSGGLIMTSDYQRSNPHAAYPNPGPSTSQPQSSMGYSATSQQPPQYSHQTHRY
Sequence of Ephrin type-A receptor 4 (P54764 whole entry): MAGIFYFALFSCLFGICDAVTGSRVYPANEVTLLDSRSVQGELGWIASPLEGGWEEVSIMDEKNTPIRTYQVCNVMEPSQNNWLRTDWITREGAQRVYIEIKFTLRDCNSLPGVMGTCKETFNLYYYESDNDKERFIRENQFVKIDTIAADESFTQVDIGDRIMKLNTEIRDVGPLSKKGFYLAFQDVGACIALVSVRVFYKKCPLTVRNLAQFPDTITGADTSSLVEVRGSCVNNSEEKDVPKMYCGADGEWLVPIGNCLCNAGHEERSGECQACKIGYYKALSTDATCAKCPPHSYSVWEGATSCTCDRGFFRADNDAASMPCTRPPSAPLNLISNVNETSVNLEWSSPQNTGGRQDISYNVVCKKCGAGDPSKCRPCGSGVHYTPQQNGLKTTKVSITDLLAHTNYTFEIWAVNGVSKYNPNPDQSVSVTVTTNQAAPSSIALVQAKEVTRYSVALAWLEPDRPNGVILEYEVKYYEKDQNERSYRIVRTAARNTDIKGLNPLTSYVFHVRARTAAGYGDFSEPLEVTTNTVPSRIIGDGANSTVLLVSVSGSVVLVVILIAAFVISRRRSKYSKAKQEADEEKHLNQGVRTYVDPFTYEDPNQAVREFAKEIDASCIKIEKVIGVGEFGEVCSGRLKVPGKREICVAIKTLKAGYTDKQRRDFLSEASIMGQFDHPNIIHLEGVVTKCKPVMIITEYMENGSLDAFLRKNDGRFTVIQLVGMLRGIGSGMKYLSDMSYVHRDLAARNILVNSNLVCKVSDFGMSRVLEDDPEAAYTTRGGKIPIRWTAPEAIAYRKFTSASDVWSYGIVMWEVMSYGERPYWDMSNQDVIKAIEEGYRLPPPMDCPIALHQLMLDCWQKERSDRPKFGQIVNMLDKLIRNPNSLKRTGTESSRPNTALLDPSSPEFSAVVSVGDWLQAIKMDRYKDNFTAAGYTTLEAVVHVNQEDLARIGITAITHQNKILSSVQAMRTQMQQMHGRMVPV

As for `CN(C)C/C=C/C(=O)Nc1ccc(C(=O)N2CCCC(Nc3ncc(Cl)c(-c4c[nH]c5ccccc45)n3)C2)cc1` (stereo not drawn), in experiment [1], the % of control stood at 63%.

For `N#Cc1cccc(-c2c[nH]c3ncnc(N4CCOCC4)c23)c1`, the % of inhibition in experiment [2] turned out to be 36%.

On to `CN1Cc2nccc(-c3cn(C)nc3-c3ccc(F)cc3)c2C1=O`, for which the % of inhibition in experiment [3] is -1%.

For orientation: pIC50 means the IC50 on a negative log10 scale, so that one unit is a factor of ten. High values mean a low IC50, low ones a high IC50. As for `CCC(=O)N1CC[C@H](Nc2ncnc3c2CN(c2cnc(OC)c(C(F)(F)F)c2)CC3)C1` [LENIOLISIB], the pIC50 against Ephrin type-A receptor 4 was less than 5.00.

In turn, `CCN(CC)CCCCNc1ncc2cc(-c3cc(OC)cc(OC)c3)c(NC(=O)NC(C)(C)C)nc2n1` came in with a % of control in experiment [4] of 100%.

In experiment [5], `COc1cc(Nc2nc(C)cc(-c3cnn4nc(OC)ccc34)n2)cc(C(F)(F)F)c1` yielded a % of control of 91%.

In experiment [6], `O[C@H]1CC[C@H](Nc2ncc3nc(Nc4c(F)cc(F)cc4F)n([C@H]4CCOC4)c3n2)CC1` yielded a % of control of 100%.

`COCC(=O)NC/C=C/c1ccc2ncnc(Nc3ccc(Oc4ccc(C)nc4)c(C)c3)c2c1` [CP-724714] showed a % of control in experiment [7] of 81%.
